Experimental data from patent US11952362B2, “Compositions and methods for treating epigenetic disease” (The Regents of the University of California, priority 2018, dated 2024).
Where two headings read alike, the source gives them in different places.

Legend:
HDAC4 = biological target: T1, HDAC4 (Homo sapiens, UniProt P56524); assay: Fluorogenic HDAC4 activity assay; format: biochemical; conditions: fluorogenic assay kit, in words
T1 construct: purchased BPS Bioscience 50064
Experimental: To measure the effects of MJK-001, -004, -006 and -008 on HDAC4 & 9 activity fluorogenic HDAC9 (#50069) and HDAC4 (#50064) assay kits (BPS Bioscience) were used. Briefly, these assays consist of two steps; in the first one the HDAC fluorometric substrate containing an acetylated lysine side chain is incubated with purified HDAC9. In the second step, the deacetylation sensitizes the substrate so subsequent treatment with the lysine developer produces a fluorophore that was measured by a fluorescence reader.

[1] = tested on: UMUC9 bladder cancer cells; assay: Cell viability assay (CellTiter Glo), UMUC9; format: cell-based; conditions: for IC50: UM-UC-9
Experimental: (§1) Pancreatic cancer cell lines (MIA PaCa-2 and CAPAN-2) were purchased from ATCC. MIA PaCa-2 were grown in DMEM and CAPAN-2 in McCoy's 5A (Gibco). Colon cancer cell lines (SW480 and HT-29) were purchased from ATCC. SW480 were grown in Leibovitz's L-15 (ATCC) and HT-29 in McCoy's 5A (Gibco). Lung cancer cell lines (NCI 460 and NCI 1975) were purchased from ATCC and grown in RPMI 1640 (Gibco). PC-3 prostate cancer cell line was purchased from ATCC and grown in F-12K (ATCC). Bladder cancer cell line 5637 was purchased from ATCC and RT-112 was purchased from Sigma-Aldrich and was grown in RPMI 1640 (Gibco). Bladder cancer cell lines, UMUC-9, UMUC-15 and UMUC-7 were purchased from MD Anderson and were grown in EMEM (ATCC). Bladder cancer cell line J82 was purchased from ATCC and was grown in EMEM (ATCC). SW1710 and EJ28 bladder cancer cell lines were purchased from DSMZ and were grown in DMEM (ATCC) and RPMI-1640 (Gibco), respectively. Bladder cancer cell line T24 was purchased from ATCC and grown in McCoy's 5A (Gibco). Bladder cancer cell line BC-3C was purchased from DSMZ and was grown in McCoy's 5A (Gibco). All media were supplemented with 10% FBS (Gemini Bioproducts) and 1% Antibiotic-Antimycotic (Gibco). In the case of MIA PaCa-2, medium was also supplemented with 2.5% horse serum (Gibco). NCM356 colon epithelial cell lines were growth in M3:10 (INCELL, San Antonio, Tex.). A CMV-driven-HDAC9 vector was used to overexpress HDAC9 levels in NCM356 cells. IL1B and TNFA mRNA levels were measured by qPCR analysis as described previously (Fang K et al. Am J Pathol, 188(3):586-99, 2018).
(§2) 1.8×10^3 cells/well were plated in quadruplicates in 96-well plate and treated with exogenously added MJK analogues 6 hours after plating. For the experiments performed to calculate the IC50s of HDAC9 analogues, a secondary treatment of exogenously added MJK analogues was performed 2 days later. Cell growth was assessed 1, 3, 5 or 7 days after plating using the CellTiter Glo Luminescence Cell Viability Assay (Promega) according to manufacturer's protocol. For the experiments where the effect of combinatorial treatment of MJK-004 analogues with chemotherapy was assessed, treatment of cells with gemcitabine (10 nM) or 5-fluouracil (2000 nM) was performed one day after MJK-004 treatment and the cells were further treated with exogenously added MJK analogues 2 days later. Cell growth was assessed 3, 4, 5 or 6 days after plating using the CellTiter Glo Luminescence Cell Viability Assay (Promega) according to manufacturer's protocol. Data are expressed as mean […] (arbitrary units)±S.D.
(§3) Cell Viability Assays were employed to determine the concentration of MJK analogues where the response is reduced by half. For each treatment of cancer cells, 1, 2, 5, 10 and 20 μM of MJK analogues were applied. GraphPad Prism 7 software was used to fit dose response curves. Relative Luciferase Activity Units were plotted against the log values of the doses used and the nonlinear regression model was used for data analysis.

[2] = tested on: RT-112 bladder cancer cells; assay: Cell viability assay (CellTiter Glo), RT-112; format: cell-based
Experimental: as §1, §2, §3
MJK-001 effects on a cancer cell line panel: The effects of MJK-001 (20 uM) on cancer cell growth was evaluated in 9 cancer cell lines, consisting of bladder, colon, lung, prostate and pancreatic cancer cell lines. Cell growth was measured on day 5. Bladder cancer cell lines (RT-112, 5637) were more responsive to MJK-001 treatment, followed by the colon and pancreatic cancer cell lines shown in Table 3.

[3] = tested on: 5637 bladder cancer cell line; assay: Cell viability assay (CellTiter Glo), 5637; format: cell-based; conditions: for IC50: 5637 cell growth
Experimental: as §1, with “All media were supplemented with 10% FBS (Gemini Bioproducts) and 1% Antibiotic-Antimycotic (Gibco). In the case of MIA PaCa-2, medium was also supplemented with 2.5% horse serum (Gibco). NCM356 colon epithelial cell lines were growth in M3:10 (INCELL, San Antonio, Tex.). A CMV-driven-HDAC9 vector was used to overexpress HDAC9 levels in NCM356 cells.” left out
as §2, with “For the experiments performed to calculate the IC50s of HDAC9 analogues, a secondary treatment of exogenously added MJK analogues was performed 2 days later.” left out, “units)±S.D. […]” for “units)±S.D.”

[4] = tested on: BC3C bladder cancer cell line; assay: Cell viability assay (CellTiter Glo), BC3C; format: cell-based; conditions: BC3C cell growth
Experimental: (§4) Pancreatic cancer cell lines (MIA PaCa-2 and CAPAN-2) were purchased from ATCC. MIA PaCa-2 were grown in DMEM and CAPAN-2 in McCoy's 5A (Gibco). Colon cancer cell lines (SW480 and HT-29) were purchased from ATCC. SW480 were grown in Leibovitz's L-15 (ATCC) and HT-29 in McCoy's 5A (Gibco). Lung cancer cell lines (NCI 460 and NCI 1975) were purchased from ATCC and grown in RPMI 1640 (Gibco). PC-3 prostate cancer cell line was purchased from ATCC and grown in F-12K (ATCC). Bladder cancer cell line 5637 was purchased from ATCC and RT-112 was purchased from Sigma-Aldrich and was grown in RPMI 1640 (Gibco). […] IL1B and TNFA mRNA levels were measured by qPCR analysis as described previously (Fang K et al. Am J Pathol, 188(3):586-99, 2018).
(§5) 1.8×10^3 cells/well were plated in quadruplicates in 96-well plate and treated with exogenously added MJK analogues 6 hours after plating. […] Cell growth was assessed 1, 3, 5 or 7 days after plating using the CellTiter Glo Luminescence Cell Viability Assay (Promega) according to manufacturer's protocol. For the experiments where the effect of combinatorial treatment of MJK-004 analogues with chemotherapy was assessed, treatment of cells with gemcitabine (10 nM) or 5-fluouracil (2000 nM) was performed one day after MJK-004 treatment and the cells were further treated with exogenously added MJK analogues 2 days later. […]

[5] = tested on: RT-112 bladder cancer cells; assay: Anchorage-independent cell growth assay (colonies in soft agar); format: cell-based; conditions: RT-112, treated at 1xIC50 or 2xIC50 for 3 days
Experimental: Quadruplicate samples of 1×10^6 bladder cancer cells, that were previously untreated or treated with the MJK-004 at the concentration corresponding to the 1×IC50 or 2×IC50 for each cell line (as assessed at the third day after cells' plating and treatment) for 3 days, were assayed in 96-well plates for colony formation using the CytoSelect Cell Transformation kit (Cell Biolabs, Inc) according to manufacturer's protocol. Seven days later, live cells were detected using a colorimetric format. The MTT dye was added directly to the cultured cells followed by a detergent solution. Quantitation was performed using a standard microplate reader at 540-570 nm. Data were expressed as the mean±S.D.

[6] = tested on: EJ28 bladder cancer cell line; assay: Cell viability assay (CellTiter Glo), EJ28; format: cell-based; conditions: Homo sapiens, EJ-28; EJ28 cell growth
Experimental: as §4, §5

bladder cancer cells = assay: Bladder cancer cell growth, overall finding; format: cell-based; conditions: in words
Experimental: as §2, §3
MJK-004 efficacy on bladder cancer cell growth and colony-formation ability: Based on the above findings, the MJK compounds were examined to determine if they had substantially better efficacy than MJK-001 to suppress bladder cancer cell growth by calculating the IC50 values.
The synthesized series of MJK chemical compounds have increased specificity for HDAC9 or HDAC4 isoforms. […] On the other hand, MJK-004 is highly efficient in blocking bladder cancer cell growth through regulation of HDAC4 isoform. MJK-006 and MJK-008 compounds have the potential to be developed as therapeutics for Crohn's Disease and other auto-immune diseases. […]

[7] = Water solubility of MJK compounds; format: physicochemical
From the text: Solubility of MJK compounds: The development of an oral formulation for patients with auto-immune diseases, including Crohn's Disease, is preferential and less expensive, avoiding the need of hospitalization in comparison to the intracolonic (enema) administration. Thus, the water solubility and physical properties of the MJK compounds were examined. […] MJK-008 is the highest soluble MJK compound.

[8] = Homo sapiens, RT-112 cell growth

T1 sequence (P56524 whole entry): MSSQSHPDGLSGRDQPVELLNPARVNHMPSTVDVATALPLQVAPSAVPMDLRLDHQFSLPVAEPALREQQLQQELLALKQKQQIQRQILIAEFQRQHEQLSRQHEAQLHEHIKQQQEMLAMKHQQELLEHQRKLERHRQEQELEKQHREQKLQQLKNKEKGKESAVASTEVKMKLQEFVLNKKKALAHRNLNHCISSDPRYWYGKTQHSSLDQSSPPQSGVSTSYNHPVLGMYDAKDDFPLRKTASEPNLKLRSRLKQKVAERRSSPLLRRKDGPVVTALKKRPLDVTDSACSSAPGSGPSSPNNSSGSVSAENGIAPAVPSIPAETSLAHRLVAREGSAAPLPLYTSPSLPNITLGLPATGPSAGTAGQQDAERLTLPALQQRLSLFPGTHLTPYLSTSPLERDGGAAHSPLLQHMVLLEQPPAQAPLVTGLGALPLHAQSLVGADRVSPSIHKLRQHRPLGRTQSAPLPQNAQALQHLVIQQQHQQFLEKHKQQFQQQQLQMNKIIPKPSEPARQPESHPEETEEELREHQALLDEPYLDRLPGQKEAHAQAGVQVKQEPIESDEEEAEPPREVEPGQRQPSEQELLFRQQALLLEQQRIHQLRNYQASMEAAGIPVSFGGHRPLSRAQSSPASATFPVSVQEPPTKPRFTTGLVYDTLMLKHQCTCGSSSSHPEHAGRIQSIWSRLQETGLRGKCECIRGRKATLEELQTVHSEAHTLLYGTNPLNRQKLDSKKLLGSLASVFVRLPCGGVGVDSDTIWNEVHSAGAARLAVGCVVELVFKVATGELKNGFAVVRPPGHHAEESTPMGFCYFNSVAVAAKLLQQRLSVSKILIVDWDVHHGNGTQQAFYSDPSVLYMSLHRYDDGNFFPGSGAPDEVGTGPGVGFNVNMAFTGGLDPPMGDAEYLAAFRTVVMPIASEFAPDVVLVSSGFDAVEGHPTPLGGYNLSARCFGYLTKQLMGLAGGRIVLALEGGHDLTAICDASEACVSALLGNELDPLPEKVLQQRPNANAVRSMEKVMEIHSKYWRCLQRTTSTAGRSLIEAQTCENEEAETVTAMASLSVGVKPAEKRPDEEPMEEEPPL

SMILES	HDAC4 activity / specificity (HDAC4)	IC50 ([1]; UMUC9 cell growth) [µM]	inhibition at 20 µM ([2]; Homo sapiens, RT-112, 120 h, RT112, 20 uM, day 5, read-out: % growth inhibition) [%]	IC50 [2, 8] [µM]	inhibition at 20 µM ([3]; 120 h, 5637, 20 uM, day 5, read-out: % growth inhibition) [%]	IC50 [4] [µM]	cell growth, monotherapy ([1]; UMUC9, days 4 & 5)	cell growth, combination with gemcitabine ([1]; UMUC9, gemcitabine 10 nM, days 4 & 5)	cell growth, monotherapy ([2]; RT-112, days 4 & 5)	cell growth, combination with gemcitabine ([2]; RT-112, gemcitabine 10 nM, days 4 & 5)	ability to form colonies in soft agar [5]	IC50 [3] [µM]	IC50 [6] [µM]	effect on bladder cancer cell growth (bladder cancer cells)	Solubility score [7]	IC50 (uM) values ([1]; UMUC9 cell growth)	Solubility score ([7]; hydrochloride)	IC50 (uM) values ([2]; RT-112 cell growth)
Cn1c(/C=C/C(=O)NO)ccc1/C=C/C(=O)c1cccc(F)c1 [MJK001, (E)-3-(5-((E)-3-(3-Fluorophenyl)-3-oxoprop-1-en-1-yl)-1-methyl-1H-pyrrol-2-yl)-N-hydro-xyacrylamide]	partially blocks	7.1	51	9.15	42.1													
Cn1c(/C=C/C(=O)NO)ccc1/C=C/C(=O)c1cccs1 [MJK004, (E)-N-hydroxy-3-(1-methyl-5-((E)-3-oxo-3-(thiophen-2-yl)prop-1-en-1-yl)-1H-pyrrol-2-yl)acrylamide]	high specificity for HDAC4	3.97		2.37		5.85	suppressed bladder cancer growth in both cell lines as a monotherapy	increased gemcitabine's efficacy	suppressed bladder cancer growth in both cell lines as a monotherapy	increased gemcitabine's efficacy	reduced significantly	7.58	6.62	highest efficacy				
Cn1c(/C=C/C(=O)NO)ccc1/C=C/C(=O)c1cccnc1 [MJK006, (E)-N-hydroxy-3-(1-methyl-5-((E)-3-oxo-3-(pyridin-3-yl)prop-1-en-1-yl)-1H-pyrrol-2-yl)acrylamide]	decreased HDAC4 specificity	19.8		38.3		36.4						1740	352	did not have any effect	worst solubility			
Cl.Cn1c(/C=C/C(=O)NO)ccc1/C=C/C(=O)c1cccnc1 [MJK008, (E)-N-Hydroxy-3-(1-methyl-5-((E)-3-oxo-3-(pyridin-3-yl)prop-1-en-1-yl)-1H-pyrrol-2-yl)ac-rylamide hydrochloride]	decreased HDAC4 specificity													did not have any effect		ns	highest solubility	ns
